From patent publication US9278940B2, “Cyclic amines as bromodomain inhibitors” (Zenith Epigenetics Corp., priority 2012, dated 2016)
Counter-ions that a name gives are not always drawn.

Tested on: MV4-11 cells
Experiment: In vivo efficacy in acute myeloid leukemia xenograft model using MV4-11 cells
Set-up: species or system mouse
Details: athymic nude mice, MV4-11 xenograft, oral 75 mg/kg b.i.d and 120 mg/kg b.i.d, tumor growth inhibition vs vehicle
Procedure: MV4-11 cells (ATCC) were grown under standard cell culture conditions and (NCr) nu/nu fisol strain of female mice age 6-7 weeks were injected 5e^6 cells/animal in 100 μl PBS+100 μl Matrigel in lower left abdominal flank. Approximately by day 18 after MV4-11 cells injection, mice were randomized based on tumor volume (L×W×H)/2) of average ^˜120 mm^3. Mice were dosed orally with compound at 75 mg/kg b.i.d and 120 mg/kg b.i.d in EA006 formulation at 10 mL/kg body weight dose volume. Tumor measurements were taken with electronic micro caliper and body weights measured on alternate days beginning from dosing period. The average tumor volumes, percent Tumor Growth Inhibition (TGI) and % change in body weights were compared relative to Vehicle control animals. The means, statistical analysis and the comparison between groups were calculated using student's t-test in Excel.

Question: How did the In vivo activity turn out when COc1cc(OC)c2c(=O)[nH]c(-c3cccc(N4CCN(C(C)C)CC4)n3)nc2c1 [Example 17, 2-(6-(4-Isopropylpiperazin-1-yl)pyridin-2-yl)-5,7-dimethoxyquinazolin-4(3H)-one Hydrochloride] was run?
Answer: The In vivo activity was “Active”.
